{"source": "patent US20200071310A1", "about": "“N-ARYL PYRAZOLES AS NRF2 REGULATORS” (GLAXOSMITHKLINE INTELLECTUAL PROPERTY DEVELOPMENT LIMITED, priority 2016, published 2020)", "key": {"[1]": {"system": "NQO1 specific enzyme activity in BEAS-2B cells", "experiment": "BEAS-2B NQO1 MTT Assay", "type": "cell-based", "settings": "NQO1 specific activity induction, BEAS-2B cells, 48 hours, read-out: EC50", "text": "NAD(P)H:quinone oxidoreductase 1 (NQO1), also called DT diaphorase, is a homodimeric FAD-containing enzyme that catalyzes obligatory NAD(P)H-dependent two-electron reductions of quinones and protects cells against the toxic and neoplastic effects of free radicals and reactive oxygen species arising from one-electron reductions. The transcription of NQO1 is finely regulated by NRF2, and thus NQO1 activity is a good marker for NRF2 activation. On day one, frozen BEAS-2B cells (ATCC) were thawed in a water bath, counted, and re-suspended at a concentration of 250,000 cells/mL. Fifty microliters of cells were plated in 384 well black clear-bottomed plates. Plates were incubated at 37° C., 5% CO2 overnight. On day two, plates were centrifuged and 50 nL of compound or controls were added to the cells. Plates were then incubated at 37° C., 5% CO2 for 48 hours. On day four, medium was aspirated from the plate and crude cell lysates were made by adding 13 uL of 1× Cell Signaling Technologies lysis buffer with 1 Complete, Mini, EDTA-free Protease Inhibitor Tablet (Roche) for each 10 mL of lysis buffer. After lysis plates were incubated for 20 minutes at room temperature. Two microliters of lysate were removed for use in Cell Titer Glo assay (Promega) and MTT cocktail was prepared (Prochaska et. al. 1998) for measurement of NQO1 activity. Fifty microliters of MTT cocktail is added to each well, plate is centrifuged, and analyzed on an Envision plate reader (Perkin Elmer) using Absorbance 570 nm label for 30 minutes. Product formation was measured kinetically and the pEC50 of NQO1 specific activity induction was calculated by plotting the change in absorbance (Delta OD/min) versus the log of compound concentration followed by 3-parameter fitting. pEC50 is the negative log of the EC50."}, "[2]": {"system": "histologic abnormalities, especially hepatic fibrosis", "settings": "rats on a choline-deficient L-amino acid-defined diet; cited from earlier work"}, "[3]": {"system": "COPD macrophages and alveolar macrophages from cigarette smoke-exposed mice", "settings": "cited from earlier work"}, "cortical damage": {"system": "cortical damage", "settings": "rats, cerebral ischemia-reperfusion model; cited from earlier work"}, "[4]": {"system": "cortical glutathione levels", "settings": "NRF2 wild-type but not KO mice; cited from earlier work"}}, "note": "Counter-ions that a name gives are not always drawn. Like-named read-outs stand apart in the source and are kept apart here."}
{"smiles": "CCOc1ccc(Br)cc1CN(Cc1cccc(-n2ncc(C(=O)O)c2[C@@H]2C[C@H]2c2cn(C)nn2)c1)C1CC1", "note": "(relative stereo) [Example 55, 1-(3-(((5-bromo-2-ethoxybenzyl)cyclo-propyl)amino)methyl)phenyl)-5-((trans)-2-(1-methyl-1H-1,2,3-triazol-4-yl)cyclopropyl)-1H-pyrazole-4-carboxylic acid trifluoroacetate]", "values": [{"measurement": "EC50", "setting": "[1]", "result": "0.1 to 1", "unit": "µM"}]}
{"smiles": "C[C@H]1Cc2ccc(C(F)(F)F)cc2S(=O)(=O)N([C@@H]2CCc3c2cccc3-n2ncc(C(=O)O)c2[C@@H]2C[C@H]2c2cn(C)nn2)C1", "note": "[Example 26b, 1-((R)-1-((S)-4-Methyl-1,1-dioxido-8-(trifluoromethyl)-4,5-dihydrobenzo[f][1,2]thiazepin-2(3H)-yl)-2,3-dihydro-1H-inden-4-yl)-5-((1R,2R)-2-(1-methyl-1H-1,2,3-triazol-4-yl)cyclopropyl)-1H-pyrazole-4-carboxylic acid]", "values": [{"measurement": "EC50", "setting": "[1]; Homo sapiens", "result": "1 to 10", "unit": "µM"}]}
{"smiles": "O=C(NCc1ccccn1)Nc1nnc(-c2ccco2)o1", "note": "[NK-252]", "values": [{"measurement": "progression of histologic abnormalities, especially hepatic fibrosis", "setting": "[2]", "result": "significantly attenuated"}]}
{"smiles": "C[S+]([O-])CCCCN=C=S", "note": "(centres unmarked) [Sulforaphane]", "values": [{"measurement": "expression of Macrophage Receptor with Collagenous structure (MARCO)", "setting": "[3]; COPD macrophages and alveolar macrophages from cigarette smoke-exposed mice", "result": "increases"}, {"measurement": "bacterial phagocytosis (Pseudomonas aeruginosa, non-typable Haemophilus influenzae) and bacterial clearance", "setting": "[3]; ex vivo and in vivo", "result": "improving"}]}
{"smiles": "Cc1c(-c2cnccn2)ssc1=S", "note": "[oltipraz]", "values": [{"measurement": "progression of histologic abnormalities, especially hepatic fibrosis", "setting": "[2]", "result": "significantly attenuated"}]}
{"smiles": "CC(C)(C)c1cc(O)ccc1O", "note": "[tert-butylhydroquinone]", "values": [{"measurement": "cortical damage", "setting": "cortical damage", "result": "reduced cortical damage"}, {"measurement": "cortical glutathione levels", "setting": "[4]", "result": "increased in NRF2 wild-type but not KO mice"}]}
